Target: T1, human ERK-2 (Homo sapiens, UniProt P28482)
T1 construct: n-terminal 6-His fusion protein in E. coli and corresponding to aa 8-360; 6-His (N); made in house; host or cells: E. coli
Assay: Labchip Kinase ERK Assay (Example 3)
Type: biochemical
Conditions: LabChip Erk Assay (footnote 2), 25 μM ATP, Caliper LabChip 3000; read-out: ERK Inhibition IC50
Procedure: Compounds were tested in an enzymatic assay using human ERK-2 recombinantly expressed as an n-terminal 6-His fusion protein in E. coli and corresponding to aa 8-360. The substrate used was 5FAM-IPTSPITTTYFFFKKK-COOH (Caliper cat #760352). Test compounds were diluted in DMSO in 3-fold serial dilutions at 100× final concentrations. […] The assay was run at ambient temperature in a white 384-well polypropylene plate (Nunc, Inc of Naperville, Ill.; Cat. 267462) for 60 minutes then stopped by addition of EDTA. Percent substrate phosphorylated was determined by microfluidic separation using a Caliper LabChip 3000 instrument. Percent inhibition was plotted against compound concentration and IC50 values were determined using a four-parameter fit.

T1 sequence (P28482 8-360): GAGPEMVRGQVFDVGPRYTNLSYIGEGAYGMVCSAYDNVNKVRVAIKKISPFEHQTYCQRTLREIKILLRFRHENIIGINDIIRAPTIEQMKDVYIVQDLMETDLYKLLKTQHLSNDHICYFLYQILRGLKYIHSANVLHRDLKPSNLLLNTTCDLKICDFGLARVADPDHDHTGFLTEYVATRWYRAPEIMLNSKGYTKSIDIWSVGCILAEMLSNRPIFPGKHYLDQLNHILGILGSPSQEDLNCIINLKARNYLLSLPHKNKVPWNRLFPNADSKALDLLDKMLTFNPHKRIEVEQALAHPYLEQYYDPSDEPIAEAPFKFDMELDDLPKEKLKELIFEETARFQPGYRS

IC50 [nM]	SMILES
53.1	Cc1cc(-c2c[nH]c3ncc(-c4ccncc4)nc23)cnc1F [II-1, 7-(6-fluoro-5-methyl-pyridin-3-yl)-2-pyridin-4-yl-5H-pyrrolo[2,3-b]pyrazine]
47.8	Cc1cc(-c2c[nH]c3ncc(-c4ccncc4)nc23)cnc1Cl [II-6, 7-(6-chloro-5-methyl-pyridin-3-yl)-2-pyridin-4-yl-5H-pyrrolo[2,3-b]pyrazine]

Further lines, the compound ahead of its results:

SMILES	IC50 [nM]
Cc1cc(-c2cnc3[nH]cc(-c4cnn(Cc5cccc(F)c5)c4)c3n2)ccn1 [I-12, 7-[1-(3-fluoro-benzyl)-1H-pyrazol-4-yl]-2-(2-methyl-pyridin-4-yl)-5H-pyrrolo[2,3-b]pyrazine]	22.1
Cc1nn(C)c(C)c1-c1cnc2[nH]cc(-c3cnn(Cc4ccccc4)c3)c2n1 [I-13, 7-(1-benzyl-1H-pyrazol-4-yl)-2-(1,3,5-trimethyl-1H-pyrazol-4-yl)-5H-pyrrolo[2,3-b]pyrazine]	105
Cc1noc(C)c1-c1cnc2[nH]cc(-c3cnn(Cc4ccccc4)c3)c2n1 [I-14, 7-(1-benzyl-1H-pyrazol-4-yl)-2-(3,5-dimethyl-isoxazol-4-yl)-5H-pyrrolo[2,3-b]pyrazine]	110
c1ccc(Cn2cc(-c3c[nH]c4ncc(-c5ccc6cn[nH]c6c5)nc34)cn2)cc1 [I-19, 7-(1-benzyl-1H-pyrazol-4-yl)-2-(1H-indazol-6-yl)-5H-pyrrolo[2,3-b]pyrazine]	343
Cc1[nH]ncc1-c1cnc2[nH]cc(-c3cnn(Cc4cccc(OC(F)(F)F)c4)c3)c2n1 [I-22, 2-(5-methyl-1H-pyrazol-4-yl)-7-[1-(3-trifluoromethoxy-benzyl)-1H-pyrazol-4-yl]-5H-pyrrolo[2,3-b]pyrazine]	14.9
c1cncc(Cn2cc(-c3c[nH]c4ncc(-c5ccncc5)nc34)cn2)c1 [I-23, 2-pyridin-4-yl-7-(1-pyridin-3-ylmethyl-1H-pyrazol-4-yl)-5H-pyrrolo[2,3-b]pyrazine]	65.8
